What was measured:
HPAF-II cells = test: HPAF-II cell proliferation assay; format: cell-based; settings: Homo sapiens, HPAF-II; 115 to 120 h incubation, resazurin; read-out: HPAF-II (inhibition of cell proliferation, IC50)
Method: (§1) HPAF-II cells (catalog #CRL-1997) are obtained from the American Type Culture Collect (ATCC, Manassas, VA). Briefly, cells are grown in Minimum Essential Media supplemented with 10% characterized fetal bovine serum (Invitrogen, Carlsbad, CA) and 1% Penicillin/Streptomycin/L-Glutamine at 37° C., 5% CO2, and 95% humidity. Cells are expanded until reaching 70-95% confluency at which point they are sub-cultured or harvested for assay use. A serial dilution of test compound is dispensed into a 384-well black clear bottom plate in triplicate. 750 cells are added per well in 50 μL complete growth medium in the 384-well plate. Plates are incubated for 115 to 120 h at 37° C., 5% CO2, and 95% humidity. At the end of the incubation, 40 μL of a […] solution of resazurin (Sigma, St. Louis, MO) in PBS is added to each well of the plate and plates are incubated for an additional 18 to 24 h at 37° C., 5% CO2, and 95% humidity. Plates are read on a Synergy2 or equivalent reader (Biotek, Winooski, VT) using an excitation of 540 nm and an emission of 600 nm. Data is analyzed using Prism software (Graphpad, San Diego, CA) to calculate IC50 values.

[1] = target: T1, C-Raf kinase (SEQ ID NO: 2) (Homo sapiens, UniProt P04049, Y340D/Y341D); test: Biochemical assay for C-Raf (coupled pyruvate kinase/lactate dehydrogenase); settings: 1 mM ATP; read-out: CRAF (inhibition of biochemical activity, IC50)
T1 construct: C-Raf residues 306-end; Y340D, Y341D with N-; GST (N); purchased Sigma

[2] = target: T2, B-Raf kinase (SEQ ID NO: 1) (Homo sapiens, UniProt P15056); test: Biochemical assay for B-Raf (coupled pyruvate kinase/lactate dehydrogenase); settings: 1 mM ATP; read-out: BRAF (inhibition of biochemical activity, IC50)
T2 construct: GST (N); purchased Sigma

MiaPaca-2 cells = test: MiaPaca-2 cell proliferation assay; format: cell-based; settings: Homo sapiens, MIA PaCa-2; 67-72 h incubation, resazurin; read-out: MiaPaca-2 (inhibition of cell proliferation, IC50)
Method: Miapaca-2 cells (catalog #CRL-1420) are obtained from the American Type Culture Collect (ATTC, Manassas, VA). Briefly, cells were grown in DMEM supplemented with 10% characterized fetal bovine serum (Invitrogen, Carlsbad, CA), 2.5% New Zealand sourced horse serum and 1% Penicillin/Streptomycin/L-Glutamine at 37° C., 5% CO2, and 95% humidity. Cells are expanded until reaching 70-95% confluency at which point they are sub-cultured or harvested for assay use. A serial dilution of test compound is dispensed into a 384-well black clear bottom plate in triplicate. Seven hundred fifty cells are added per well in 50 μL complete growth medium in the 384-well plate. Plates are incubated for 67-72 h at 37° C., 5% CO2, and 95% humidity. At the end of the incubation, 10 μL of a 440 μM solution of resazurin (Sigma, St. Louis, MO) in PBS is added to each well of the plate and plates are incubated for an additional 5-6 h at 37° C., 5% CO2, and 95% humidity. Plates are read on a Synergy2 or equivalent reader (Biotek, Winooski VT) using an excitation of 540 nm and an emission of 600 nm. Data is analyzed using Prism software (GraphPad, San Diego, CA) to calculate IC50 values.

Pa16c cells = test: Pa16c cell proliferation assay; format: cell-based; settings: 67 to 72 h incubation, resazurin; read-out: Pa16c (inhibition of cell proliferation, IC50)
Method: as §1, with “Pa16c” for “HPAF-II”, “cells” for “cells (catalog #CRL-1997)”, “Dr. Channing Der, University of North Carolina at Chapel Hill.” for “the American Type Culture Collect (ATCC, Manassas, VA).”, “Dulbecco's Modified Eagle Medium” for “Minimum Essential Media”, “67” for “115”, “72” for “120”

HCT-116 cells = test: HCT-116 cell proliferation assay; format: cell-based; settings: 67 to 72 h incubation, resazurin; for IC50: Homo sapiens, HCT-116, read-out: HCT-116 (inhibition of cell proliferation, IC50)
Method: HCT-116 cells (catalog #CCL-247) are obtained from the American Type Culture Collect (ATCC, Manassas, VA). Briefly, cells are grown in McCoy's 5A supplemented with 10% characterized fetal bovine serum (Invitrogen, Carlsbad, CA) and 1% Penicillin/Streptomycin/L-Glutamine at 37° C., 5% CO2, and 95% humidity. Cells are expanded until reaching 70-95% confluency at which point they are sub-cultured or harvested for assay use. A serial dilution of test compound is dispensed into a 384-well black clear bottom plate in triplicate. 375 cells are added per well in 50 μL complete growth medium in the 384-well plate. Plates are incubated for 67 to 72 h at 37° C., 5% CO2, and 95% humidity. At the end of the incubation, 40 μL of a […] solution of resazurin (Sigma, St. Louis, MO) in PBS is added to each well of the plate and plates are incubated for an additional 4 to 5 h at 37° C., 5% CO2, and 95% humidity. Plates are read on a Synergy2 or equivalent reader (Biotek, Winooski, VT) using an excitation of 540 nm and an emission of 600 nm. Data is analyzed using Prism software (Graphpad, San Diego, CA) to calculate IC50 values.

T1 sequence (P04049 307-648 Y340D/Y341D): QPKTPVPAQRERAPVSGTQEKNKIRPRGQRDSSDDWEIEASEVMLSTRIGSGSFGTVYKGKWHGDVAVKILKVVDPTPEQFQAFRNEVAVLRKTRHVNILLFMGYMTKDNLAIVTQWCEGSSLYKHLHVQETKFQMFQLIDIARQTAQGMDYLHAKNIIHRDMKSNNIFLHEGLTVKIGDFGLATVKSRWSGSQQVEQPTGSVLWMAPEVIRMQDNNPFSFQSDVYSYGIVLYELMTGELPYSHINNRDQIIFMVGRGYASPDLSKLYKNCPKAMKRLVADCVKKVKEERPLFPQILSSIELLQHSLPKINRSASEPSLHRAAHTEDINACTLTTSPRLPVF
T2 sequence (P15056 416-766): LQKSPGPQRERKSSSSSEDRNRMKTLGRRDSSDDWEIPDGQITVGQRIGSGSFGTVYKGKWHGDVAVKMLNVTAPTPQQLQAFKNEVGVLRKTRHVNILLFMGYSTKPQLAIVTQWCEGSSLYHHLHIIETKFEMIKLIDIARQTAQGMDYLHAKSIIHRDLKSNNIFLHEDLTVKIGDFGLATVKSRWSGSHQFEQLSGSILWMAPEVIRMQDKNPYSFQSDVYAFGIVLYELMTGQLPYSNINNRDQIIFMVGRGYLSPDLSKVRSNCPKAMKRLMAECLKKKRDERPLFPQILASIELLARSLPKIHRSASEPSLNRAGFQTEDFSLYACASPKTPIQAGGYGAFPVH

IC50 [1] [nM] | IC50 [2] [nM] | IC50 (MiaPaca-2 cells) [nM] | IC50 (HCT-116 cells) [nM] | Compound | IC50 (HPAF-II cells) [nM] | IC50 (Pa16c cells) [nM] | HCT-116 (inhibition of cell proliferation, IC50) (HCT-116 cells)
1000 to 10000 | 1000 to 10000 | < 100 | < 100 | Cc1ccc(NC(=O)c2cc(C(F)(F)F)cnn2)cc1-c1ccnc(N2C[C@H]3C[C@@H]2CO3)c1 [Example 86] | < 100 | < 100 | –
1000 to 10000 | 1000 to 10000 | 500 to 1000 | 500 to 1000 | Cc1ccc(NC(=O)c2cc(C(F)(F)F)cnn2)cc1-c1cncc(N2CCOCC2)n1 [Example 59] | 500 to 1000 | 100 to 500 | –
100 to 500 | 100 to 500 | 1000 to 10000 | 1000 to 10000 | Cc1ccc(NC(=O)c2cncc(C(C)C)n2)cc1-c1cc(N[C@H](C)CO)nc(N2CCOCC2)c1 [Example 57, (R)—N-(3-(2-((1-hydroxypropan-2-yl)amino)-6-morpholinopyridin-4-yl)-4-methylphenyl)-6-isopropylpyrazine-2-carboxamide] | 1000 to 10000 | 1000 to 10000 | –
< 100 | 100 to 500 | 500 to 1000 | 100 to 500 | Cc1ccc(NC(=O)c2cc(C(C)C)cnn2)cc1-c1ccnc(N2CCOCC2)c1 [Example 58] | 100 to 500 | 100 to 500 | –
500 to 1000 | 1000 to 10000 | 100 to 500 | 500 to 1000 | Cc1ccc(NC(=O)c2cc(C(N)=O)cnn2)cc1-c1cc(N[C@H](C)CO)nc(N2CCOCC2)c1 [Example 80] | 1000 to 10000 | 1000 to 10000 | –
< 100 | 100 to 500 | 100 to 500 | 100 to 500 | Cc1ccc(NC(=O)c2cc(Br)cnn2)cc1-c1cc(N[C@H](C)CO)nc(N2CCOCC2)c1 [Example 82] | 1000 to 10000 | 1000 to 10000 | –
1000 to 10000 | 1000 to 10000 | 500 to 1000 | 1000 to 10000 | CNc1cc(N2C[C@H]3C[C@@H]2CO3)nc(-c2cc(NC(=O)c3cc(C(F)(F)F)cnn3)ccc2C)n1 [Example 91] | 1000 to 10000 | 1000 to 10000 | –
< 100 | < 100 | < 100 | < 100 | Cc1ccc(NC(=O)c2cc(C(C)(F)F)cnn2)cc1-c1cc(N[C@H](C)CO)nc(N2CCOCC2)c1 [Example 66] | < 100 | < 100 | –
1000 to 10000 | 1000 to 10000 | 100 to 500 | 100 to 500 | Cc1ccc(NC(=O)c2cc(C(F)(F)F)cnn2)cc1-c1nc(N[C@H](C)CO)cc(N2C[C@H]3C[C@@H]2CO3)n1 [Example 90] | 500 to 1000 | 1000 to 10000 | –

The remaining lines, values behind:

Compound | IC50 [1] [nM] | IC50 [2] [nM] | IC50 (MiaPaca-2 cells) [nM] | IC50 (HCT-116 cells) [nM] | IC50 (HPAF-II cells) [nM] | IC50 (Pa16c cells) [nM] | HCT-116 (inhibition of cell proliferation, IC50) (HCT-116 cells)
Cc1ccc(NC(=O)c2cc(C(F)(F)F)cnn2)cc1-c1cc(N[C@H](C)CO)nc(N2CC3CC(C2)O3)c1 [Example 7] | 100 to 500 | 100 to 500 | < 100 | – | < 100 | 500 to 1000 | ++ ++
Cc1ccc(NC(=O)c2cc(C3CC3)cnn2)cc1-c1ccnc(N2CCOCC2)c1 [Example 2, 5-cyclopropyl-N-(4-methyl-3-(2-morpholinopyridin-4-yl)phenyl)pyridazine-3-carboxamide] | < 100 | 100 to 500 | 100 to 500 | 100 to 500 | 100 to 500 | 1000 to 10000 | –
Cc1ccc(NC(=O)c2cc(C(F)(F)F)cnn2)cc1-c1ccnc(N2CCOCC2)c1 [Example 1, N-(4-methyl-3-(2-morpholinopyridin-4-yl)phenyl)-5-(trifluoromethyl)pyridazine-3-carboxamide] | 100 to 500 | 100 to 500 | < 100 | 100 to 500 | 100 to 500 | 100 to 500 | –
Cc1ccc(NC(=O)c2cnc(C3CC3)nc2)cc1-c1cc(N[C@H](C)CO)nc(N2CCOCC2)c1 [Example 17] | < 100 | 100 to 500 | 500 to 1000 | 500 to 1000 | 500 to 1000 | 1000 to 10000 | –
Cc1ccc(NC(=O)c2cc(C(F)(F)F)cnn2)cc1-c1nccc(N2CCOCC2)n1 [Example 10] | 1000 to 10000 | 1000 to 10000 | 1000 to 10000 | 1000 to 10000 | 1000 to 10000 | 1000 to 10000 | –
Cc1ccc(NC(=O)c2cc(C(F)(F)F)cnn2)cc1-c1cc(N2CCOCC2)nc(N[C@H](C)CO)n1 [Example 33] | < 100 | 100 to 500 | 100 to 500 | 100 to 500 | 100 to 500 | 100 to 500 | –
Cc1ccc(NC(=O)c2cc(C(F)(F)F)cnn2)cc1-c1nc(OCCO)cc(N2CCOCC2)n1 [Example 43] | 1000 to 10000 | 1000 to 10000 | < 100 | 100 to 500 | < 100 | 100 to 500 | –
Cc1ccc(NC(=O)c2cc(C(C)(C)F)cnn2)cc1-c1cc(N[C@H](C)CO)nc(N2CCOCC2)c1 [Example 23] | < 100 | < 100 | < 100 | < 100 | < 100 | 100 to 500 | –
Cc1cc(-c2cc(NC(=O)c3cc(C4CCC4)cnn3)ccc2C)cc(N2CCOCC2)n1 [Example 42] | < 100 | < 100 | 100 to 500 | 100 to 500 | 100 to 500 | 100 to 500 | –
Cc1cc(-c2cc(NC(=O)c3cc(C(F)(F)F)cnn3)ccc2C)cc(N2CCOCC2)n1 [Example 4] | < 100 | < 100 | 100 to 500 | 100 to 500 | < 100 | < 100 | –
Cc1ccc(NC(=O)c2cc(C(F)(F)F)cnn2)cc1-c1cc(C2CC2)nc(N2CCOCC2)c1 [Example 3] | 100 to 500 | 100 to 500 | < 100 | 100 to 500 | 100 to 500 | < 100 | –
Cc1ccc(NC(=O)c2cc(C3CC3)cnn2)cc1-c1cncc(N2CCOCC2)n1 [Example 55] | 500 to 1000 | 1000 to 10000 | 1000 to 10000 | 1000 to 10000 | 1000 to 10000 | 1000 to 10000 | –
